Data on 3 compounds can be found in US20250108038A1 (priority 2023, published 2025).

One series has as its target CYP3A4 (Homo sapiens, UniProt P08684). Put plainly: in vitro. As to conditions: both, pH 7.4, Inhibition at Highest Test Article Concentration.
In the next series the test system is Wistar rats. In kind it is in vivo, Wistar rat. As to conditions: for % hit rate: nicotine 0.05-0.2 mg/kg sc, Compound I-4 0.1-3.0 mg/kg ip, Compound I-19 0.03-1.0 mg/kg ip; for % correct / Magazine Head Entries / Omissions / number of trials completed / perseverative responses / premature responses / response latencies (correct, incorrect) / reward latencies / timeout responses: same doses. As for the experimental part: Animals were trained in eight automated 5C-SRTT operant chambers (Med Associates, St. Albans, VT, USA), controlled by MedPC software (Med Associates). Briefly, each operant chamber was equipped with 5 apertures containing a photocell beam to detect nose pokes and a lamp (2.8 W) that could be illuminated randomly at varying durations. Food pellets (45 mg chow pellet, BioServ, Frenchtown, NJ, USA) were delivered automatically to a magazine, located on the opposite wall to the nose pokes, that was also equipped with a light that turned on to indicate that a pellet had been dispensed. The house-light remained on for the entire session unless an error or omission occurred. Training sessions began with the delivery of a food reward and retrieval triggered the first trial. […] Training began with the stimulus duration set at 10 sec, a limited hold period of 5 sec and an ITI of 5 sec. […] Sessions ended when 40 minutes had lapsed or 100 trials had been completed.
Upon meeting the performance criteria, animals were assessed in the vSD version of the task where the following stimulus durations were presented in a pseudorandom manner: 0.3, 0.6 and 0.9 sec. Later, subjects were assessed in the vITI version where 2.5, 5.0 and 10.0 sec ITIs were employed in a pseudorandom manner. Performance parameters measured were: % hit ((# correct/(# correct+# incorrect including omissions))×100); % correct ((# correct/(# correct+# incorrect excluding omissions))×100); premature responses (# of nose-pokes into any aperture after trial initiation but before onset of the stimulus light); timeout responses (# of nose pokes into any aperture during a timeout period), perseverative responses (# of nose pokes occurring after the correct response had been made but before reward collection); # of food magazine head entries, omissions and total trials completed. The latency to correct response (time taken from the onset of the nose poke light stimulus to making the correct nose poke response), latency to incorrect response (time taken from onset of nose poke light stimulus to making the incorrect nose poke response), and latency to reward (i.e., the magazine latency, time taken from making a correct nose poke response to retrieving the reward from the magazine) was also recorded.
Drug doses and vehicle were administered in a pseudorandom fashion. Drug or vehicle sessions were performed 1-2 times per week with maintenance training (behavioral testing without drug or vehicle injections) interspersed.
All data were collated and entered into Microsoft Excel spreadsheets. The data were subsequently imported into StatView 5.0 for statistical analyses. One and two factor analysis of variance (ANOVA) tests were used with repeated measures when indicated, followed by Fisher LSD or Student Newman Keuls as post-hoc tests. All results were expressed as the mean (±S.E.M.). Differences between means from experimental groups were considered significant at the p<0.05 level. The statistical F values and degrees of freedom associated with the two factor ANOVA analyses are provided in the text of this report. Please refer to the statistical reports in the appendices for the values associated with one factor ANOVAs for the overall means and overall total values.

A short description of series [1]: Brain homogenate binding by equilibrium dialysis. The class given is in vitro ADME, mouse. Conditions: for % Recovery / % Unbound: mouse brain, 2 μM, 37° C. As for the experimental part: Samples of spiked plasma and blank buffer (Dulbecco's phosphate-buffered saline, DPBS) and spiked brain homogenate and blank DPBS added to opposing sides of a dialysis membrane were collected from triplicate equilibrium dialysis chambers prior to (t=0) and following 1, 2, 4 and 6 hours of incubation at 37° C. […] The LC-MS/MS method(s) for analytes (Compound I-19, Compound A and Compound B) was cross-qualified for the analysis of the DPBS samples.
A secondary stock solution of 200 μM (74.2 ug/mL) will be prepared in DMSO. This secondary stock solution will then be diluted 100-fold to 2 μM ([…]) with male CD-1 mouse plasma and brain homogenate (1:2 v/v brain:Dulbecco's phosphate buffered saline, pH 7-7.2) or buffer (DPBS).
To 2.97 mL aliquots of thawed mouse plasma or brain homogenate warmed to 37° C., 30 ul aliquots of the secondary stock solution of the test compound will be added for final concentrations of 2 μM (0.742 ug/mL). An appropriate volume of warmed buffer (DPBS) will also be spiked with the test compound at a concentration of 2 μM ([…]). Triplicate aliquots (50 μL) of each spiked plasma, brain homogenate and buffer solution will be collected prior to dialysis into labeled 1.5 mL polypropylene tubes and then stored at approximately −80° C. until bioanalysis.
Equilibrium dialysis will be performed in a 96-well Teflon dialysis unit (HTDialysis, Gales Ferry, CT). Each well of the unit consists of two chambers separated by a vertically aligned dialysis membrane (regenerated cellulose) with a molecular weight cut-off of 12-14 KDa. The equilibrium dialysis membranes will first be presoaked in deionized water for 30 min, then soaked in 20% ethanol for 20 min, followed by rinsing twice with deionized water.
The equilibrium dialysis apparatus will be assembled according to the manufacturer's directions. One chamber of each well will be immediately filled with 150 μL of blank buffer (to prevent membrane dehydration). Aliquots (150 μL) of spiked plasma, spiked brain homogenate and spiked buffer will then be added to the opposing chamber in each well. Three wells per time point per matrix will be used. The top of the plate will be sealed with an adhesive sealing film to prevent evaporation and maintain constant pH during incubation.
The dialysis apparatus will be incubated at 37° C. in an orbital shaker/incubator (Lab-Line Enviro Shaker) set at 75 rpm.
Following 1, 2, 4 and 6 hours of incubation, samples from each plasma, brain homogenate and buffer compartment will be collected and the sample volume will be documented.
(In equilibrium dialysis free small molecules cross a membrane that holds back macromolecules.)

Molecules are shown by their SMILES.

Sequence of CYP3A4 (P08684 whole entry): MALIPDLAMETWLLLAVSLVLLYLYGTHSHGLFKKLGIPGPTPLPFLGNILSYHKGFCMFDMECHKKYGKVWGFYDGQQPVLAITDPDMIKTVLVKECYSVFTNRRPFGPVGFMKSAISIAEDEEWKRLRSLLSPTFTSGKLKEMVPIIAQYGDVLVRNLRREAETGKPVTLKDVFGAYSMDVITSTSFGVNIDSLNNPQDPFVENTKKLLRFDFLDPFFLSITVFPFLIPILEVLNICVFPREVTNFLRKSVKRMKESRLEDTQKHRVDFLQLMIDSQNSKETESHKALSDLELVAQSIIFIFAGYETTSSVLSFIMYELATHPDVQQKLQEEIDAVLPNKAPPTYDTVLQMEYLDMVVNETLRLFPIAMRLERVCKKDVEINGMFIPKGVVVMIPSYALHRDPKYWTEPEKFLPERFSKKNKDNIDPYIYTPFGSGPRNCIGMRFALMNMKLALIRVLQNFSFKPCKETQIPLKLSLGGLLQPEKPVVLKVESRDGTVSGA

Regarding `OC1(c2ccc(Cl)cc2)c2ccccc2C2=NCCN21` (stereo not shown) [Compound A, 5-(4-chlorophenyl)-2,3-dihydroimidazo[1,2-b]isoindol-5-ol, reference compound], the inhibition – broadly, the drop in the measured response relative to a control, in per cent – at 10 µM against CYP3A4 (3A4, Midazolam) was 11.7%; against CYP3A4 (3A4, Testosterone), 14%.
`COCCOC1(c2ccc(Cl)cc2)c2ccccc2C2=NCCN21` (stereo not shown) [Compound I-4]: in the series with Wistar rats, the “% hit rate” value was “decrease in the % hit rate”; the “% correct” value was “no statistically significant dose-related effects”; the Magazine Head Entries result was “decreases in the number of premature responses, timeout responses, and magazine head entries”; the Omissions entry is on record as “increase in the number of omissions”. Moreover, in the series on Wistar rats, the “number of trials completed” value is “decreases in the number of trials completed”; the perseverative responses entry is “no statistically significant effects on perseverative responses”; the premature responses entry is listed as “the higher 3 doses of Compound I-4 were associated with a decrease”; the “response latencies (correct, incorrect)” value is given as “increases in the response latencies”. Further, in the series on Wistar rats, the reward latencies entry is listed as “some increases in the reward latencies, but they were not statistically significant”; the timeout responses entry was “decreases in the number of premature responses, timeout responses, and magazine head entries”.
Regarding `Clc1ccc(C2(OCC3OCCO3)c3ccccc3C3=NCCN32)cc1` (stereo not shown) [Compound I-19], the “% recovery, brain homogenate” value in series [1] (6 hours of dialysis) came to 51.3±2.58%. Besides, in series [1] (dialysis time 1 h), the “% Recovery” value was 87.8 ± 2.40% and the “% Unbound” value was 1.33%. Besides, in series [1] (dialysis time 2 h), the “% Recovery” value was determined as 83.1 ± 1.58% and the “% Unbound” value was determined as 1.64 ± 0.181%. Further, in series [1] (dialysis time 4 h), the “% Recovery” value worked out at 65.1 ± 4.05% and the “% Unbound” value worked out at 2.46 ± 0.183%. Further, in series [1] (dialysis time 6 h), the “% Recovery” value is given as 51.3 ± 2.58% and the “% Unbound” value is 3.31 ± 0.385%. Further, in the series on Wistar rats, the “% hit rate” value is “dose-dependent decrease in the % hit rate”, the “% correct” value was “no statistically significant dose-related effects”, the Magazine Head Entries entry is given as “decreased in a dose-dependent manner” and the Omissions result is on record as “increase in the number of omissions”. In the series with Wistar rats, the “number of trials completed” value is reported as “decreases in the number of trials completed”; the perseverative responses result is listed as “very modest reduction in the number of perseverative responses”; the premature responses result was “decrease in the number of premature responses”; the “response latencies (correct, incorrect)” value is “very modest increases in the response latencies”. For the same compound, in the series on Wistar rats, the reward latencies entry was “some increases in the reward latencies, but they were not statistically significant”; the timeout responses result was “decrease in the number of premature responses, timeout responses, magazine head entries, and perseverative responses”.
